Assay results from patent publication US20230151024A1, “STING AGONISTIC COMPOUND” (ONO PHARMACEUTICAL CO., LTD., priority 2020, published 2023).

What was measured:
[1] = Conversion of a prodrug to an active body thereof in mouse plasma; assay type: in vitro ADME; details: 1 μmol/L, 37° C. for 60 minutes, conversion to the compound in Example 3
Description: (§1) The solutions of the example compounds in Table 5 below (50 μmol/L, 50% acetonitrile with 5% DMSO) were added to plasma (245 μL), respectively, such that the final concentrations thereof become 1 μmol/L. After keeping them at 37° C. for 60 minutes, 40 μL of the reaction solutions were taken therefrom, and added to 200 μL of acetonitrile/ethanol (7:3) containing Candesartan (internal standard).
(§2) The concentration of the compound prepared in Example 3 in the plasma resulting from the above reaction was analyzed by LC-MS/MS according to the following method.
(§3) Prominence UFLCXR (Shimadzu Corporation), API5000 (AB Sciex)
(§4) The whole amount was transferred to a filter plate for protein removal and filtered by suction, and the filtrate thereof was diluted 2-fold with water. [LC column] Shim-pack XR-ODSII 2.0 mm ID x 75 mm (Shimadzu Corporation)
(§5) Column temperature: 40° C. Mobile phase: A: 0.2% formic acid in 5 mM ammonium acetate solution; and
(§6) Electrospray, positive mode, multiple reaction monitoring;
(§7) Compound prepared in Example 3: m/z353.0→m/z311.2, DP: 80, CE: 35; and Candesartan (internal standard): m/z309.1→m/z163.0, DP: 71, CE: 21.
(§8) A regression formula was calculated from the peak area ratio of the real sample and the standard sample for the calibration curve in the same matrix (peak area of the compound in Example 3/peak area of Candesartan), and the peak area ratio of the real sample was substituted into the regression formula to calculate the quantitative value. 60 minutes later, the concentration of the compound in Example 3 in the sample was compared, and the conversion rate (%) thereof was calculated using the following formula:
(§9) Conversion rate (%)=Concentration of the compound in Example 3 in the sample after 60 minutes (μmol/L)×100

[2] = Conversion of a prodrug to an active body thereof in human plasma; assay type: in vitro ADME; details: 1 μmol/L, 37° C. for 60 minutes, conversion to the compound in Example 3
Description: as §1, §2, §3, §4, §5, §6, §7, §8, §9

THP1-Dual-STING KO cells = assay: Effects on THP1-Dual-STING KO cells (activity of the IRF pathway); assay type: cell-based; details: STING gene homozygous deficient THP1-Dual cells, about 24 hours
Description: STING gene homozygous deficient THP1-Dual cells (THP1-Dual-STING KO cells (Invivogen) were suspended in RPMI medium to prepare 2×10^6 cells/mL cell suspension. 50 μL of cell suspensions were dispensed into a 96-well plate, to which 50 μL of 6 to 20,000 nM compound solutions were further added, followed by incubation at 37° C. for about 24 hours. 10 μL of the cell suspensions were collected from each well, which were mixed with 50 μL of Quanti-luc (Invivogen), and then the activity of the IRF pathway was measured by detecting luminescence using a microplate reader.

IDO1 = target: T1, IDO1 (Homo sapiens, UniProt P14902); assay: Evaluation of IDO1 inhibitory activity (IDO1 Fluorogenic Inhibitor Screening Assay Kit); assay type: biochemical; details: compound solutions of 0.6, 2, 6, 20, 60 and 200 μmol/L added
T1 construct: purchased BPS Bioscience
Description: The evaluation of IDO1 inhibitory activity was carried out using the IDO1 Fluorogenic Inhibitor Screening Assay Kit (BPS Bioscience). Specifically, IDO1 Fluorogenic Reaction Solution was dissolved, of which 180 μL were added to each well. Then, 10 μL of the compounds at the respective concentrations of 0.6, 2, 6, 20, 60 and 200 μmol/L were added thereto. Further, after adding 10 μL of IDO1 His-Tag solution thereto, and the mixture thereof was incubated at room temperature for 1 hour, and then 20 μL of Fluorescence Solution was added thereto, and the mixture thereof was incubated at 37° C. for 4 hours. After standing them at room temperature for 10 minutes, the fluorescence was measured using a microplate reader (excitation: 400 nm, emission: 510 nm).

[3] = test system: BTK, KDR, each subtype of PKCα to t, each CDK of CDK2 to 9, FAK, TIE2, RAF1 and BRAF; assay: Evaluation of inhibitory activity against various kinases (mobility shift, LabChip); assay type: biochemical; details: 4 μmol/L test substance solution at 4 times the final concentration
Description: 4 μmol/L of the test substance solution (the compound in the present invention produced in Example 1) (at 4 times the final concentration) was prepared by dissolving it to the assay buffer (20 mmol/L HEPES, 0.01% Triton X-100, 1 mmol/L DTT, pH 7.5). 4 μmol/L of the substrate/ATP/metal solution (at 4 times the final concentration) was prepared by dissolving it to the kit buffer (20 mmol/L HEPES, 0.01% Triton X-100, 5 mmol/L DTT, pH 7.5). Various kinase solutions at twice the final concentration were prepared by dissolving them to the assay buffer. 5 μL of the test substance solution, 5 μL of the substrate/ATP/metal solution and 10 μL of the kinase solution were mixed in wells of a polypropylene 384-well plate, and the mixture thereof was reacted at room temperature for 1 to 5 hours. The reaction was stopped by adding 70 μL of the termination buffer (QuickScout Screening Assist MSA; Carna Biosciences). The substrate peptide and phosphorylated peptide in the reaction solution were separated and quantified by LabChip system (Perkin Elmer). The kinase reaction was evaluated based on the product ratio (P/(P+S)) calculated from the peak height (S) of the substrate peptide and the peak height (P) of the phosphorylated peptide. The various kinases used in this evaluation are as follows:
BTK, KDR, each subtype of PKCα to t, each CDK of CDK2 to 9, FAK, TIE2, RAF1 and BRAF.

[4] = test system: colon cancer cell line MC38; assay: Anti-tumor effect in a subcutaneously colon cancer cell line MC38 tumor-bearing mouse model (Example 17); assay type: in vivo, mice (C57/BL6); details: 3 mg/kg, administered 7 days after MC38 transplantation, measured until Day 26
Description: Colon cancer cell line MC38 derived from C57/BL6 mice were subcutaneously transplanted to right flank region of syngeneic mice (C57/BL6, female, 6 weeks old (Charles River Japan)) (herein, the day of transplantation was designated as Day 0) to prepare subcutaneously MC38 tumor-bearing mice. Seven days after transplantation, the subcutaneously MC38 tumor-bearing mice were grouped based on tumor volume, and the Vehicle group (n=8) and group to which the compound shown in Example 1 (3 mg/kg, n=6) was administered were set. The changes in tumor volume were continuously measured until 26 days after transplantation (Day 26). The tumor volume was calculated by the following formula:
[Tumor volume (mm^3)]=[major axis (mm)]×[minor axis (mm)]^2×0.5

T1 sequence (P14902 whole entry): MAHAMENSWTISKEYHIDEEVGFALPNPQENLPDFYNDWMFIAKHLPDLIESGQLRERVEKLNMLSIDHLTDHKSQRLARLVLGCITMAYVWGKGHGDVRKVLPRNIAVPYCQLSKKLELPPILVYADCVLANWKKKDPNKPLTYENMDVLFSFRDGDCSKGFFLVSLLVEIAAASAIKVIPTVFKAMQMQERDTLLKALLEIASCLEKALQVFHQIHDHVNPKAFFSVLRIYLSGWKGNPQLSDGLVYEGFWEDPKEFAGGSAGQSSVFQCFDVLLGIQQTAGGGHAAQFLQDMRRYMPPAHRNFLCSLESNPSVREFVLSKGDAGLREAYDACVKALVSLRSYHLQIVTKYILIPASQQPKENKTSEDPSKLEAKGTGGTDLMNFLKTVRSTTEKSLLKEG

Row | SMILES | Plasma conversion rate Mouse [1] | Plasma conversion rate Human [2] | IDO1 inhibitory activity (IDO1) | IRF activating effect (THP1-Dual-STING KO cells) | inhibitory activity against various kinases [3] | tumor growth (tumor volume) [4]
1 | CC(=O)c1cc(-c2ncc(-c3cnn(C(=O)NCC(=O)O)c3)c3onc(N)c23)c(F)cc1N [Example 12(9), (4-(4-(5-acetyl-4-amino-2-fluorophenyl)-3-aminoisoxazolo[4,5-c]pyridin-7-yl)-1H-pyrazole-1-carbonyl)glycine] | + (the conversion rate of each example compound in the table to the compound in Example 3 is less than 25%) | + (the conversion rate of each example compound in the table to the compound in Example 3 is less than 25%) | – | – | – | –
2 | CC(=O)c1cc(-c2ncc(-c3cnn(COC(=O)N(C)c4ncccc4COP(=O)(O)O)c3)c3onc(N)c23)c(F)cc1N [Example 12(1), (4-(5-(5-acetyl-4-amino-2-fluorophenyl)-3-aminoisoxazolo[4,5-c]pyridin-7-yl)-1H-pyrazol-1-yl)methyl methyl(3-((phosphonooxy)methyl)pyridin-2-yl)carbamate] | + (the conversion rate of each example compound in the table to the compound in Example 3 is less than 25%) | + + | – | – | – | –
3 | COC(=O)c1cc(-c2ncc(-c3cn[nH]c3)c3onc(N)c23)c(F)cc1N [Example 1, methyl 2-amino-5-(3-amino-7-(1H-pyrazol-4-yl)isoxazolo[4,5-c]pyridin-4-yl)-4-fluorobenzoate] | – | – | no IDO1 inhibitory activity | no IRF activating effect | no significantly inhibit activities | almost completely suppressed the tumor growth
4 | CC(=O)c1cc(-c2ncc(-c3cnn(COC(=O)N4CCC(N5CCCCC5)CC4)c3)c3onc(N)c23)c(F)cc1N [Example 12, (4-(4-(5-acetyl-4-amino-2-fluorophenyl)-3-aminoisoxazolo[4,5-c]pyridin-7-yl)-1H-pyrazol-1-yl)methyl [1,4′-bipiperidine]-1′-carboxylate] | + (the conversion rate of each example compound in the table to the compound in Example 3 is less than 25%) | + (the conversion rate of each example compound in the table to the compound in Example 3 is less than 25%) | – | – | – | –
5 | CC(=O)c1cc(-c2ncc(-c3cnn(COP(=O)(O)OCOC(=O)OC(C)C)c3)c3onc(N)c23)c(F)cc1N [Example 12(11), ((((4-(4-(5-acetyl-4-amino-2-fluorophenyl)-3-aminoisoxazolo[4,5-c]pyridin-7-yl)-1H-pyrazol-1-yl)methoxy)(hydroxy)phosphoryl)oxy)methyl isopropyl carbonate] | + (the conversion rate of each example compound in the table to the compound in Example 3 is less than 25%) | + (the conversion rate of each example compound in the table to the compound in Example 3 is less than 25%) | – | – | – | –
6 | CC(=O)c1cc(-c2ncc(-c3cnn(COP(=O)(O)O)c3)c3onc(N)c23)c(F)cc1N [Example 10(1), (4-(4-(5-acetyl-4-amino-2-fluorophenyl)-3-aminoisoxazolo[4,5-c]pyridin-7-yl)-1H-pyrazol-1-yl)methyl dihydrogen phosphate] | + + + | + + + | – | – | – | –

Continued, in another order:

Row | Plasma conversion rate Mouse [1] | Plasma conversion rate Human [2] | IDO1 inhibitory activity (IDO1) | SMILES | IRF activating effect (THP1-Dual-STING KO cells) | inhibitory activity against various kinases [3] | tumor growth (tumor volume) [4]
7 | + + + | + + + | – | CC(=O)c1cc(-c2ncc(-c3cnn(COC(=O)OC[C@H]4OC(O)[C@H](N)[C@@H](O)[C@@H]4O)c3)c3onc(N)c23)c(F)cc1N.Cl (stereo partly drawn) [Example 12(6), (4-(4-(5-acetyl-4-amino-2-fluorophenyl)-3-aminoisoxazolo[4,5-c]pyridin-7-yl)-1H-pyrazol-1-yl)methyl (((2R,3S,4R,5R)-5-amino-3,4,6-trihydroxytetrahydro-2H-pyran-2-yl)methyl) carbonate hydrochloride] | – | – | –
8 | + + + | + + + | – | CNCC(=O)OCc1cccnc1N(C)C(=O)OCn1cc(-c2cnc(-c3cc(C(C)=O)c(N)cc3F)c3c(N)noc23)cn1.Cl [Example 12(3), 2-((2-((((4-(4-(5-acetyl-4-amino-2-fluorophenyl)-3-aminoisoxazolo[4,5-c]pyridin-7-yl)-1H-pyrazol-1-yl)methoxy)carbonyl)(methyl)amino)pyridin-3-yl)methoxy)-N-methyl-2-oxoethane-1-ammonium chloride] | – | – | –
9 | + + + | + + + | – | CC(=O)c1cc(-c2ncc(-c3cnn(COC(=O)OCCN4CCOCC4)c3)c3onc(N)c23)c(F)cc1N.Cl [Example 12(4), (4-(4-(5-acetyl-4-amino-2-fluorophenyl)-3-aminoisoxazolo[4,5-c]pyridin-7-yl)-1H-pyrazol-1-yl)methyl (2-morpholinoethyl)carbonate hydrochloride] | – | – | –
10 | + + + | + + + | – | CNCC(=O)OCc1cccnc1N(C)C(=O)OC(C)n1cc(-c2cnc(-c3cc(C(C)=O)c(N)cc3F)c3c(N)noc23)cn1 (centres unmarked) [Example 12(2), (2-(((1-(4-(4-(5-acetyl-4-amino-2-fluorophenyl)-3-aminoisoxazolo[4,5-c]pyridin-7-yl)-1H-pyrazol-1-yl)ethoxy)carbonyl)(methyl)amino)pyridin-3-yl)methyl methylglycinate] | – | – | –
11 | + + + | + + + | – | COC(=O)n1cc(-c2cnc(-c3cc(C(C)=O)c(N)cc3F)c3c(N)noc23)cn1 [Example 12(10), methyl 4-(4-(5-acetyl-4-amino-2-fluorophenyl)-3-aminoisoxazolo[4,5-c]pyridin-7-yl)-1H-pyrazole-1-carboxylate] | – | – | –
12 | + + + | + + + | – | CC(=O)c1cc(-c2ncc(-c3cnn(COC(=O)OC[C@H]4OC(O)[C@H](O)[C@@H](O)[C@@H]4O)c3)c3onc(N)c23)c(F)cc1N (stereo partly drawn) [Example 12(5), (4-(4-(5-acetyl-4-amino-2-fluorophenyl)-3-aminoisoxazolo[4,5-c]pyridin-7-yl)-1H-pyrazol-1-yl)methyl (((2R,3S,4S,5R)-3,4,5,6-tetrahydroxytetrahydro-2H-pyran-2-yl)methyl) carbonate] | – | – | –
